For one compound, Activity, inhibition and response, % of control results are on record in ChEMBL document CHEMBL4480433, “Investigation of B,C-ring truncated deguelin derivatives as heat shock protein 90 (HSP90) inhibitors for use as anti-breast cancer agents” (Bioorg Med Chem, 2019).

Assay [1] deals with MDA-MB-231. Nature of the assay: Cytotoxicity against human MDA-MB-231 cells at 10 uM after 72 hrs by MTS assay. The assay is classed as functional, cell-based. Background: Tetrazolium assays rely on reduction of a dye to a coloured formazan, in cell work by metabolically active cells.
Assay [2] relates to MDA-MB-231. Nature of the assay: Inhibition of HSP90 in human MDA-MB-231 cells assessed as reduction in phosphorylated-AKT/total-AKT ratio at 5 to 10 uM after 72 hrs by immunoblot analysis. The format is cell-based. A general note: A western blot detects proteins with antibodies after separation by electrophoresis.
Assay [3] has as its system MDA-MB-231. Nature of the assay: Inhibition of HSP90 in human MDA-MB-231 cells assessed as reduction in phosphorylated-MEK/total-MEK ratio at 5 to 10 uM after 72 hrs by immunoblot analysis. The format is cell-based. The conditions noted are these: Hofmanni bacterium.
A further assay deals with 4T1. As to the kind of experiment: Cytotoxicity against mouse 4T1 cells at 10 uM after 72 hrs by MTS assay. The format is functional, cell-based.
In assay [4] the test system is MDA-MB-231. As to the kind of experiment: Induction of morphological changes in human MDA-MB-231 cells assessed as cytoplasmic shrinkage at 2 to 10 uM after 72 hrs by phase contrast microscopic analysis. The assay is classed as functional, cell-based.
In assay [5] the target is T1, Heat shock protein HSP90 (Homo sapiens) (UniProt P07900+P08238). As to the kind of experiment: Inhibition of HSP90 in human H1299 cells assessed as reduction in HIF-1alpha at 10 nM incubated for 72 hrs and subsequently incubated under hypoxic conditions for 12 hrs by Western blot analysis relative to control. The format is cell-based. Particulars: values are per cent of control.

Assay [6] addresses T1, Heat shock protein HSP90 (Homo sapiens). Nature of the assay: Inhibition of HSP90 in human H1299 cells assessed as reduction in HIF-1alpha incubated for 72 hrs and subsequently incubated under hypoxic conditions for 12 hrs by Western blot analysis relative to control. The format is cell-based.
Assay [7] concerns MDA-MB-231. As to the kind of experiment: Inhibition of ERK phosphorylation in human MDA-MB-231 cells at 5 to 10 uM after 72 hrs by immunoblot analysis. The format is cell-based.
The subject of assay [8] is MDA-MB-231. As to the kind of experiment: Inhibition of HSP90 in human MDA-MB-231 cells assessed as reduction in phosphorylated-STAT3/total-STAT3 ratio at 5 to 10 uM after 72 hrs by immunoblot analysis. The format is cell-based.
Assay [9] relates to MDA-MB-231. As to the kind of experiment: Effect on ERK protein level in human MDA-MB-231 cells at 2 to 10 uM after 72 hrs by immunoblot analysis. The assay is classed as functional, cell-based.
The target in assay [10] is T1, Heat shock protein HSP90 (Homo sapiens). As to the kind of experiment: Inhibition of HSP90 in human H1299 cells assessed as reduction in HIF-1alpha at 100 nM incubated for 72 hrs and subsequently incubated under hypoxic conditions for 12 hrs by Western blot analysis relative to control. The assay is classed as cell-based. Particulars: values are per cent of control.

The structures appear in SMILES notation. Calls of active or inactive are those of the source. No cut-off for these calls is given here.

As to `COc1ccc(N(CCN2CCNCC2)C(=O)c2ccc3c(c2OC)C=CC(C)(C)O3)cc1OC`, the result in the assay on MDA-MB-231 [1], in the assay on 4T1 and in the assay on MDA-MB-231 [4] was Active. Also, the inhibition entry in the assay on MDA-MB-231 [2], with MDA-MB-231 [3], with MDA-MB-231 [7] and with MDA-MB-231 [8] was “Active” in each case. The figures for the response, % of control in assay [5] and in assay [10] were 60.6% and 51.9%, respectively. Further, the inhibition entry in [6] was “Dose-dependent effect”. Moreover, the result in the assay on MDA-MB-231 [9] was inactive.
